Results as given in patent US20240390357A1, “PYRIDINES AND THEIR USE IN TREATMENT OF GBA-RELATED DISEASES” (ZEVRA DENMARK A/S, priority 2021, published 2024).
Marks after values point to notes of the source that are not given here.

Target: T1, GBA (glucosylceramidase, GCase), L444P GBA mutation (Homo sapiens, UniProt P04062, L483P)
T1 construct: Human fibroblast cell line GM10915 harboring the L444P GBA mutation was obtained from Coriell Biorepositories; host or cells: GM10915 human fibroblasts
T1 sequence (P04062 40-536 L483P): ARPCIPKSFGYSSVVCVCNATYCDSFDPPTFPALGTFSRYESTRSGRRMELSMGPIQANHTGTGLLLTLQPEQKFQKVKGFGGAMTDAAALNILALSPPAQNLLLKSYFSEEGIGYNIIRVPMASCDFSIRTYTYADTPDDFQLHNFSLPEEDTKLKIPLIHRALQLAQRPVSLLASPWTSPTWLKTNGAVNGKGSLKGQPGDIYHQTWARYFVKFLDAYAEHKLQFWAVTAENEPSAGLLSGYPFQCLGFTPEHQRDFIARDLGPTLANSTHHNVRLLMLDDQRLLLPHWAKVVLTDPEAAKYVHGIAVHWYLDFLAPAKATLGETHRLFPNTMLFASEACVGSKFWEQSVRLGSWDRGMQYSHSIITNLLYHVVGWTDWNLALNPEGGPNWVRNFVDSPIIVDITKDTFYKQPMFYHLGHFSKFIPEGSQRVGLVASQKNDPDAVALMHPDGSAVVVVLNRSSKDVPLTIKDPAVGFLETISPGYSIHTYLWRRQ
Test: GCase activity assay (4-MUG) in GM10915 fibroblasts, normalised to crystal violet staining
Assay type: cell-based
Conditions: five days exposure; for GBA EC1.5: concentration where Percent GCase activity = 150% (1.5-fold induction), human fibroblast cell line GM10915 (L444P GBA), 8-point dose range; for Emax / GBA Emax: maximum Percent GCase activity in the dose range tested, relative to basal activity of untreated cells, GM10915 (L444P GBA)
Description: Human fibroblast cell line GM10915 harboring the L444P GBA mutation was obtained from Coriell Biorepositories.
The GM10915 cell line was cultured under standard cell culture conditions (37° C. and 5% CO2) in complete DMEM medium supplemented with nonessential amino acids (NEAA), 1% Pen-Strep and 12% FCS. Cells were seeded at a density of 10^4 cells/well in 100 μL complete medium in one black 96-well plate for glucosylceramidase (GCase) activity measurement and in one clear 96-well plate for crystal violet staining to correct for cell density. Crystal violet staining is performed to obtain quantitative information about the relative density of cells adhering to multi-wells plates.
The assay was adapted from Sawkar et al (2002) and briefly described in the following. The day after seeding of cells, the medium was replaced with fresh medium containing the compounds to be tested. Compounds were tested in duplicate and in an 8-point diluted dose range to obtain a dose response. Cells were exposed with compounds for five days. Fresh compound was added every 2-3 days. PBS was included to define the basal level of GCase activity.
Cells were washed three times with 200 μL PBS per well and 50 μL of 2.5 mM 4-MUG buffer (4-MUG dissolved in 0.2 M acetate buffer pH 4.0) was added and the cells were incubated at 37° C., 5% CO2 for 23 hours. The reaction was stopped by adding 150 μL 0.2 M glycine buffer (pH 10.8). Fluorescence was measured with a Varioskan® Flash reader (Thermo Scientific) at an excitation/emission setting of 365/445 nm.
Cells were treated with compounds in a parallel setup identical to the setup to test for GCase activity. At the end of compound treatment, cells were washed once with 200 μL PBS per well and 50 μL 0.1% w/v crystal violet (in H20) was added. Following 10 min. of incubation, the crystal violet solution was removed, and the cells were washed three times with 200 μL PBS and 100 μL 1% SDS was added to solubilize the stain.
The plate was agitated on an orbital shaker for 10-30 min. Absorbance (A) is measured at […] using a Varioskan® Flash reader (Thermo Scientific).
The fluorescence signal (F) derived from the GCase measurement is normalized to the absorbance signal (A) derived from the crystal violet staining. The percent GCase activity resulting from compound treatment is calculated relative to the basal activity obtained from untreated cells.
Maximal effect of compounds (E max) is determined from the dose response effects as the maximum “Percent GCase activity” achieved in the dose range tested.

| Structure (SMILES) | GBA EC1.5 | Emax [%] | GBA Emax [%] |
| --- | --- | --- | --- |
| Nc1c(Br)cc(Br)cc1CN[C@H]1CC[C@H](O)CC1 [Ambroxol, reference compound] | >20* *The 1.5-fold induction criteria was not reached within the tested concentration range μM | – | – |
| CCCCCO[C@H]1CC[C@H](NC(=O)c2cnn3c(C)cc(C)nc23)CC1 [LTI-291, reference compound] | 112 µM | – | – |
| c1cc(CN2CCCCC2)cc(C2CCNCC2)n1 [compound 540] | 5.4 µM | 177 | – |
| c1c(C2CCNCC2)noc1CN1CCCCC1 [compound 586] | 7.5 µM | 234 | – |
| C1CCN(Cc2noc(C3CCCNC3)n2)CC1 (stereo not shown) [compound 614] | 46 µM | 169 | – |
| c1nc(C2CCNCC2)sc1CN1CCCCC1 [compound 620] | 3.5 µM | 236 | – |
| c1cn(C2CCNCC2)nc1CN1CCCCC1 [compound 624] | 21 µM | 189 | – |
| c1cc(CN2CCCCC2)nc(C2CCNCC2)n1 [compound 638] | 4.1 µM | 263 | – |
| c1c(C2CCNC2)noc1CN1CCCCC1 (stereo not shown) [compound 654] | 4.9 µM | 381 | – |
| C1=C(c2ccc(CN3CCCCC3)cn2)CNC1 [compound 666] | 9.2 µM | 253 | – |
| Cn1nc(C2CCCNC2)cc1CN1CCCCC1 (stereo not shown) [compound 708] | 16 µM | 205 | – |
| COc1ncc(C2CCNCC2)cc1CN1CCCCC1 [compound 715] | 24.8 µM | 160 | – |
| COc1ncc(C2CCCNC2)cc1CN1CCCCC1 (stereo not shown) [compound 729] | 2.7 µM | 223 | – |
| Cc1cc(C2CCCNC2)nc(CN2CCCCC2)n1 (stereo not shown) [compound 730] | 5.0 µM | – | 234 |
| Cc1cc(CN2CCCCC2)nc(C2CCCNC2)c1 (stereo not shown) [compound 732] | 3.2 µM | 200 | – |
| COc1ncc(C2CCN(C)CC2)cc1CN1CCCCC1 [compound 735] | 2.3 µM | 212 | – |
| CN1CCCC(c2cncc(CN3CCCCC3)c2)C1 (stereo not shown) [compound 736] | 3.7 µM | 216 | – |
| Cc1cc(C2CCCNC2)nc(CN2CCCCC2)n1 (stereo not shown) [compound 737] | 21.5 µM | – | 203 |
| Cc1cc(C2CCCN(C)C2)nc(CN2CCCCC2)n1 (stereo not shown) [compound 738] | 5.4 µM | 248 | – |
| Cc1cc(C2CCNCC2)nc(CN2CCCCC2)n1 [compound 739] | 30.8 µM | 176 | – |
| c1nc(C2CCNCC2)cnc1CN1CCCCC1 [compound 753] | 19.1 µM | 190 | – |
| c1nc(C2CCCNC2)cnc1CN1CCCCC1 (stereo not shown) [compound 754] | 11.8 µM | 180 | – |
| c1cc(CN2CCCCC2)ncc1C1CCCNC1 (stereo not shown) [compound 757] | 4.2 µM | 214 | – |
| Cc1cc(CN2CCCCC2)cnc1C1CCCNC1 (stereo not shown) [compound 758] | 3.1 µM | 233 | – |
| c1cc(C2CCNCC2)ncc1CN1CCCCC1 [compound 759] | 6.6 µM | 200 | – |
| Cc1cc(CN2CCCCC2)cnc1C1CCNCC1 [compound 760] | 4.3 µM | 211 | – |
| CC(c1cncc(C2CCCNC2)c1)N1CCCCC1 (stereo not shown) [compound 761] | 5.2 µM | 205 | – |
